Measurements taken from patent publication US20200352947A1, “USE OF SEROTONERGIC DRUGS TO TREAT VIRUS-INDUCED THROMBOCYTOPENIA” (NATIONAL UNIVERSITY OF SINGAPORE, priority 2017, published 2020).

Assays:
Format in all cases: in vivo
[1] = tested on: JEV-infected mice; assay: Platelet counts in JEV-infected mice; conditions: 10^6 pfu JEV IP, ketanserin 8 mg/kg at 1 hour post-infection, 24 hours, n=5
Method: Platelet counts of JEV infected mice. Mice were infected with 10^6 pfu of JEV intraperitoneally and were vehicle- or ketanserin-treated (8 mg/kg) at 1 hour post-infection. At 24 hours, blood was collected and platelet counts were measured. The drop in platelet counts induced by JEV was prevented by ketanserin treatment (n=5). Mean values are presented and error bars represent the SEM. P values were determined by Student's unpaired t test; *p<0.05.
Japanese encephalitis virus (JEV) is a flavivirus related to dengue, so the ability of ketanserin to inhibit JEV-induced thrombocytopenia was also tested. Mice were infected with 10^6 pfu of JEV IP, and were treated at 1 hour post-infection with vehicle (1% DMSO) or ketanserin (8 mg/kg). At 24 hours, blood was collected and platelet counts were measured. The reduction in platelet counts induced by JEV was inhibited by ketanserin treatment (FIG. 14).

[2] = tested on: DENV2; assay: DENV viral load by qRT-PCR in IFNR-KO mice; conditions: DENV2 2×10^5 pfu i.p., ketanserin 8 mg/kg daily, 72 h post-infection
Method: (A) WT mice were treated with vehicle or ketanserin (8 mg/kg) prior to subcutaneous footpad injection with 2×10^5 pfu of DENV or PBS. At 72 h post-infection, popliteal lymph nodes were isolated for viral quantification by qRT-PCR. […] (B-C) WT mice were infected with DENV2 (1×10^6 pfu, i.p.) and treated daily with either 8 mg/kg of ketanserin or vehicle. […] (C) At 1 day post-infection, the spleen was harvested and DENV2 was quantified by qRT-PCR.
Since a concern with inhibition of host factors would be the effect on viral replication, the levels of viremia following DENV infection were measured. WT mice were treated with either ketanserin or vehicle prior to a subcutaneous footpad injection. The draining lymph nodes were then harvested to determine if targeting 5HT2A receptors had any influence on viral load. […] Subsequently it was determined whether targeting serotonin would have an effect on viral load in systemic infection. WT mice were treated with either ketanserin or vehicle following DENV systemic infection via intraperitoneal injection. Serum was isolated at days 1 and 3 post-infection and viremia quantified. […] The second model of severe DENV infection, the IFN-α,β, γ-R^−/− (IFNR-KO) mice, were subsequently infected and treated with either ketanserin or vehicle. These mice are known to have higher levels of viremia than WT mice.

[3] = tested on: DENV2-infected mice; assay: Platelet counts (thrombocytopenia) in DENV2-infected WT mice; conditions: 10^6 pfu DENV2 IP, 24 hours post-infection, n=5
Method: (§1) Platelet counts of DENV2 infected mice. Mice were infected via intraperitoneal route (IP) with 10^6 plaque forming units (pfu) and were given either vehicle (1% DMSO) or ketanserin 8 mg/kg IP. Blood was taken via cheek bleed 24 hours post-infection and platelet counts were measured using an automated hematology analyzer. DENV2 infection induces thrombocytopenia, but ketanserin treatment is able to prevent thrombocytopenia (n=5). Mean values are presented and error bars represent the SEM. P values were determined by Student's unpaired t test; ***P<0.001, ****P<0.0001.
Platelet counts of DENV2 infected mice. Mice were infected IP with 10^6 pfu of DENV2 and were given either vehicle, the 5HT1A antagonist WAY-100135, or either of the 5HT2A antagonists, ketanserin and sarpogrelate. Blood was taken via cheek bleed 24 hours post-infection and platelet counts were measured using an automated hematology analyzer. DENV2 infection induced thrombocytopenia that was able to be prevented through administration of serotonin receptor antagonists (n=5). Mean values are presented and error bars represent the SEM. P values were determined by one-way ANOVA; ***p<0.001, ****P<0.0001.
WT mice were infected via intraperitoneal route (IP) with 10^6 plaque forming units (pfu) of DENV2 and were given either vehicle (1% DMSO) or ketanserin (8 mg/kg) IP. Blood was taken via cheek bleed 24 hours post-infection and platelet counts were measured using an automated hematology analyzer.
One limitation of the experimental protocol in Examples 10 and 11 is that the vehicle used to deliver ketanserin in mice, DMSO, can itself interfere with platelet aggregation [Rosenblum, W. I. & El-Sabban. F. Stroke 13, 35-39 (1982)]. This difference can be observed by comparing the severity of thrombocytopenia in dengue-infected mice between FIGS. 1 and 10. Accordingly, newer serotonin receptor antagonists that are more soluble in saline were tested, to determine whether a similar effect is seen even without the confounding effects of DMSO. Mice were infected IP with 10^6 pfu of DENV2 and were given either vehicle, the 5HT1A antagonist WAY-100135 (3 mg/kg), or one of the 5HT2A antagonists ketanserin (8 mg/kg) or sarpogrelate (3 mg/kg). Blood was taken via cheek bleed 24 hours post-infection and platelet counts were measured using an automated hematology analyzer.

[4] = tested on: DENV2-infected IFNαβγ-KO mice; assay: Platelet counts in DENV2-infected mice deficient in interferon signalling; conditions: 10^6 pfu DENV2 IP, ketanserin 8 mg/kg IP once daily, 24 and 72 hours post-infection, n=5
Method: as §1, with “Mice deficient in interferon signalling (IFNαβγ-KO)” for “Mice”, “[…].” for “IP.”, “24 and 72” for “24”, “induced” for “induces”, “was” for “is”, “test;” for “test; ***P<0.001,”
These mice are commonly used in the study of DENV as their deficiency in interferon signaling results in sustained DENV replication [St John, A. L., et al., eLife 2, e00481 (2013)]. IFNαβγ-KO mice were infected via the intraperitoneal route (IP) with 10^6 plaque forming units (pfu) of DENV2 and were given either vehicle (1% DMSO) or ketanserin (8 mg/kg) IP once daily thereafter. Blood was taken via cheek bleed 24 and 72 hours post-infection and platelet counts were measured using an automated hematology analyzer.

## O=C(c1ccc(F)cc1)C1CCN(CCn2c(=O)[nH]c3ccccc3c2=O)CC1 [ketanserin, 3-[2-[4-(4-fluorobenzoyl)piperidin-1-yl]ethyl]-1H-quinazoline-2,4-dione]
[1]
  reduction in platelet counts induced by JEV: inhibited
[2]
  viral load in serum: no difference in viral load
  viral load in spleen: no difference in viral load
[3]; WT mice, ketanserin 8 mg/kg IP, vehicle 1% DMSO
  platelet counts (DENV2-induced thrombocytopenia): did not show significantly reduced platelets compared to control
[3]; mice, WAY-100135 3 mg/kg, ketanserin 8 mg/kg or sarpogrelate 3 mg/kg
  platelet counts (DENV2-induced thrombocytopenia): prevented
[4]
  platelet counts (DENV2-induced thrombocytopenia): able to maintain the initial normal platelet count
